In patent US6368529B1, “Lignocellulosic composite” (U.S. Borax Inc., priority 2000, dated 2002):

What was measured:
[1] = system: Gloeophyllum trabeum (ATCC 11539); assay: Soil block decay test (AWPA E10-87), brown rot; format: cell-based; settings: for Comparison with zinc borate against G. trabeum: after leaching
Excerpt: (§1) Wood flakeboard was manufactured by conventional wood processing techniques, incorporating various borates at a range of concentrations, from 0.5 to 2.0% boric acid equivalent (BAE). Boric acid (H3BO3) equivalent is a commonly used convention for comparing various borates on an equivalent contained-boron basis. For each borate/loading combination, fifteen pounds of aspen (Populus tremuloides) furnish having an average particle size of about 2.5×0.75×0.025 inches, was blended with 0.75 pounds (5%) Rubinate 1840 (product of ICI), a polymeric methylene diphenyl diisocyanate adhesive, 0.11 pounds (0.75%) of Cascowax EW 403HS (product of Borden) and various concentrations of nine test borates. For each borate/loading combination, three 18″×18″ composite boards of 0.5 inch thickness were formed by pressing for 210 seconds at (180 seconds pressure, 30 seconds pressure release) at 204.5° C. (the pressure was kept in excess of 6000 psi during the pressure cycle). Each board was trimmed to 15″×15″ and cut to produce internal bond and analytical/soil block specimens for evaluation. Replicates were cut from the inner portion of the boards. Four internal bond, two leaching panels and twenty analytical/soil block specimens were cut from each board.
(§2) The panels to be leached (4.5″×4.5″) were edge sealed with an epoxy sealant and leached for two weeks. Leaching began with pressure treatment of the specimens with water for 30 minutes under vacuum and one hour under pressure. The specimens were removed from the pressure treatment chamber and the residual water was changed after two hours, then daily for the remainder of the leaching period. Afterward, they were trimmed to remove the sealed edges and cut into analytical/soil block test samples. Unleached and leached analytical/soil block samples for each board type were separately randomized. Fifteen were analyzed for borate content and ten were retained for the soil block decay test.
(§3) The soil block test was conducted in accordance with AWPA E10-87, with the exception that soil block dimensions were 1.0″×1.0″×0.5″. The fungi used were Gloeophyllum trabeum (ATCC 11539) for brown rot test and Trametes versicolor (MAD 697) for white rot test. An untreated composite control was run both unleached and leached. Solid southern yellow pine and birch were also run as unleashed controls against G. trabeum and T. versicolor, respectively as a test of fungal vigor.

[2] = system: Trametes versicolor (MAD 697); assay: Soil block decay test (AWPA E10-87), white rot; format: cell-based; settings: for Comparison with zinc borate against T. versicolor: after leaching
Excerpt: as §1, §2, §3

[3] = Borate content of composite after two weeks water leaching; format: physicochemical; settings: leached two weeks
Description: as §2

[4] = Bulk solids flow testing, J. R. Johanson Indicizer System; format: physicochemical; settings: for Hopper Index Stainless Steel / Chute Index Stainless Steel: 304-2B Stainless Steel; for Hopper Index Stainless Steel / Hopper Index Plastic / Hopper Index Carbon Steel: maximum angle from the vertical, larger is better; for Chute Index Stainless Steel / Chute Index Plastic / Chute Index Carbon Steel: minimum angle from horizontal, smaller is better; for Hopper Index Plastic / Chute Index Plastic: Tivar UHMWPE plastic; for Hopper Index Carbon Steel / Chute Index Carbon Steel: aged carbon steel; for Arching Index / Ratholing Index: multiple of the discharge opening, less than 1 necessary for free flow, average of 3-6 tests
Excerpt: Bulk solids flow testing was done using the J. R. Johanson Indicizer System, including a Hang-up Indicizer and Hopper Indicizer, manufactured by J R Johanson, Inc. 712 Fiero Lane #37, San Luis Obispo, Calif. 93401. The test procedures are described in detail in their company literature (BULK SOLIDS INDICES TESTING, Hang-up Indicizer™ Instruction Manual ©JR Johanson, Inc. 1991 and BULK SOLIDS INDICES TESTING, Hopper Indicizer™ Instruction Manual ©JR Johanson, Inc. 1991). The results are presented in the following Table 3 as the Arching Index, Ratholing Index, Hopper Index and Chute Index, which are the average of several tests (3-6). The meaning and usefulness of these flow indices in evaluating the flow properties of bulk solids are also described in literature from JR Johanson, Inc., including Binside Scoop™, Vol. 7, No. 2, Fall 1994, Binside Scoop™, Vol. 8, No. 3, Winter 1995, and “Bulk solids Flow Indices—A Simplified Evaluation system”, by Jerry R. Johanson, ©JR Johanson, 1991.
Arching Index—A tendency of a cohesive material is to plug up the opening of a bin by forming an “arch” over the discharge opening. The arching index is given as a multiple of the discharge opening, so less than 1 is necessary for free flow. Numbers greater than 1 reflect a need to enlarge the opening.
Ratholing Index—A tendency of a cohesive material is to hang up on the sides of a bin while an open hole forms in the center and flow ceases. Rathole indices are also given as a multiple of the discharge opening and a number of less than 1 is necessary for free flow. Numbers greater than 1 mean the bins should be redesigned.
Hopper Index—The maximum angle, measured in degrees from the vertical, that is required for the conical portion of a hopper in order to produce reliable mass flow. A larger number is better.
Chute Index—The minimum angle, measured in degrees from horizontal, required for flow down a chute and to prevent material buildup at impact areas. A smaller number is better. Chute indices may often be close to the angle of repose.
Both hopper and chute indices measurements involve friction over a specified surface and measurements are made using substrates of the material of construction. The substrates used for these tests are 304-2B Stainless Steel, aged carbon steel and Tivar UHMWPE (ultra high molecular weight polyethylene) plastic.

[5] = leached two weeks, target loading 0.5% BAE (0.09% B)
[6] = leached two weeks, target loading 1.0% BAE (0.17% B)
[7] = leached two weeks, target loading 2.0% BAE (0.35% B)
[8] = unleached aspen flakeboard, target loading 0.5% BAE (0.09% B)
[9] = unleached aspen flakeboard, target loading 1.0% BAE (0.17% B)
[10] = unleached aspen flakeboard, target loading 2.0% BAE (0.35% B)
[11] = target loading 0.5% BAE (0.09% B)
[12] = target loading 1.0% BAE (0.17% B)
[13] = target loading 2.0% BAE (0.35% B)

Compound	Mean % Wt. Loss G. trabeum [1, 5] [%]	Mean % Wt. Loss G. trabeum [1, 6] [%]	Mean % Wt. Loss G. trabeum [1, 7] [%]	Mean % Wt. Loss G. trabeum [1, 8] [%]	Mean % Wt. Loss G. trabeum [1, 9] [%]	Mean % Wt. Loss G. trabeum [1, 10] [%]	Mean % Wt. Loss T. versicolor [2, 5] [%]	Mean % Wt. Loss T. versicolor [2, 6] [%]	Mean % Wt. Loss T. versicolor [2, 7] [%]	Mean % Wt. Loss T. versicolor [2, 8] [%]	Mean % Wt. Loss T. versicolor [2, 9] [%]	Mean % Wt. Loss T. versicolor [2, 10] [%]	Assay % B [3, 11] [% B]	Assay % B [3, 12] [% B]	Assay % B [3, 13] [% B]	Chute Index Plastic [4] [degrees]	also measured
O=BOB=O [Boric Oxide (4m), Boric Oxide, reference compound]	15.5	7.4	3.0	2.6	1.4	1.7	34.3	29.5	9.5	7.5	9.0	2.9	0.02	0.04	0.09	–	–
O=BOB=O [Boric Oxide (60m), Boric Oxide, reference compound]	8.0	6.0	3.3	1.6	0.7	1.1	50.4	35.8	23.2	7.6	3.6	3.7	0.02	0.03	0.07	–	–
Colemanite [Colemanite (1)]	5.5	1.5	1.0	0.6	1.0	1.5	27.5	8.4	2.5	3.9	3.7	2.4	0.03	0.07	0.19	90	Comparison with zinc borate against G. trabeum [1]: roughly comparable to zinc borate; Comparison with zinc borate against T. versicolor [2]: roughly comparable to zinc borate; Hopper Index Stainless Steel ([4]; Glass Grade): 14 degrees; Chute Index Stainless Steel ([4]; Glass Grade): 76 degrees; Hopper Index Plastic ([4]; Glass Grade): 8 degrees; Hopper Index Carbon Steel ([4]; Glass Grade): 3 degrees; Chute Index Carbon Steel ([4]; Glass Grade): 82 degrees; Arching Index ([4]; Glass Grade): 0.7; Ratholing Index ([4]; Glass Grade): 4.7
Colemanite [Colemanite (2)]	3.4	1.6	1.3	0.8	0.6	1.1	19.9	5.1	2.2	5.1	2.3	2.2	0.04	0.08	0.18	90	Comparison with zinc borate against G. trabeum [1]: roughly comparable to zinc borate; Comparison with zinc borate against T. versicolor [2]: roughly comparable to zinc borate; Hopper Index Stainless Steel ([4]; listed as Colemanite F): 1.3 degrees; Chute Index Stainless Steel ([4]; listed as Colemanite F): 90 degrees; Hopper Index Plastic ([4]; listed as Colemanite F): 4.2 degrees; Hopper Index Carbon Steel ([4]; listed as Colemanite F): 2.7 degrees; Chute Index Carbon Steel ([4]; listed as Colemanite F): 90 degrees; Arching Index ([4]; listed as Colemanite F): 0.4; Ratholing Index ([4]; listed as Colemanite F): 3.9
Gowerite	7.4	5.8	3.1	0.9	0.9	1.3	24.7	14.7	11.8	5.5	3.1	2.6	0.04	0.07	0.09	–	–
Hydroboracite	9.4	4.2	1.8	1.1	1.0	2.2	27.1	21.0	4.5	2.8	3.6	2.2	0.05	0.06	0.13	–	–
Nobleite	5.4	1.4	1.5	1.1	1.0	1.4	27.6	11.6	10.1	5.3	3.6	2.6	0.03	0.06	0.09	41	Hopper Index Stainless Steel [4]: 16 degrees; Chute Index Stainless Steel [4]: 45 degrees; Hopper Index Plastic [4]: 17 degrees; Hopper Index Carbon Steel [4]: 14 degrees; Chute Index Carbon Steel [4]: 47 degrees; Flow properties, summary ([4]; compared with zinc borate, Colemanite F and Colemanite, Glass Grade): superior flow properties; Arching Index [4]: 0.2; Ratholing Index [4]: 0.5
Ulexite	6.6	1.0	1.3	1.4	0.8	1.8	22.3	11.0	7.2	13.9	3.4	3.0	0.03	0.08	0.11	–	–
